# Measured values: patent US20030229132A1, “Small molecule modulators of apoptosis” (priority 2002, published 2003)
# pIC50: −log10 of the molar value.
# What was measured:
# [1] = test system: human mammary epithelial cells (HMEC); assay: Cell viability, HMEC; format: cell-based
# [2] = test system: A431; assay: Cell viability, A431; format: cell-based; settings: A431, epidermal
# Source text: (§1) Normal cell lines include peripheral blood lymphocytes (PBL) isolated from donated human blood, non-transformed mammary fibroblasts (MCF-10A), human mammary epithelial cells (HMEC), human umbilical vein endothelial cells (HUVEC), and human prostate epithelial cells (PREC). Transformed cell lines include cell lines from leukemia, breast, lung, ovarian, and epidermal cancers (Table 1).
# [3] = test system: Jurkat cells; assay: PARP cleavage in Jurkat cells (immunoblot); format: cell-based, human; settings: 50 μM compound or 1 μM staurosporin, 6 hr
# Description: (§2) (C) DNA fragmentation analysis. […] Cell viability assay.
# (§3) Compounds were then tested for their ability to induce apoptosis in live cells. The ability of the compounds to activate caspase-3 in a Jurkat cell line was first assayed. […] This same pattern was seen when we assayed for the cleavage of poly (ADP-ribose) polymerase (PARP), a cellular substrate of caspases-3 and -7 (see, D. W. Nicholson, Cell Death Differ 6, 1028-42 (1999)). Upon apoptosis, PAR-P is cleaved from a 116 kD to an 85 kD protein.
# [4] = test system: Molt-4; assay: Cell viability, Molt-4; format: cell-based, human; settings: Molt-4, leukemia
# Source text: Samples were then probed by immunoblot for (A) caspase-3 activation or (B) cleavage of PARP. (C) DNA fragmentation analysis. […] The DNA was isolated by phenol/chloroform extraction, separated on a 2% agarose gel and visualized by ethidium bromide staining. Cell viability assay.
# as §1
# [5] = test system: human prostate epithelial cells (PREC); assay: Cell viability, PREC; format: cell-based
# Source text: as §1
# [6] = test system: MDA-MB-468; assay: Cell viability, MDA-MB-468; format: cell-based; settings: MDA-MB-468, breast
# Source text: as §1
# [7] = test system: MDA-MB-453; assay: Cell viability, MDA-MB-453; format: cell-based; settings: MDA-MB-453, breast
# Source text: as §1
# [8] = test system: MCF-7; assay: Cell viability, MCF-7; format: cell-based
# Source text: as §1
# [9] = test system: NCI-H23; assay: Cell viability, NCI-H23; format: cell-based, human; settings: NCI-H23, lung
# [10] = test system: Jurkat cells; assay: Caspase-3 activation in Jurkat cells (immunoblot); format: cell-based, human; settings: 50 μM compound or 1 μM staurosporin, 6 hr
# Description: as §2, §3
# [11] = test system: MCF 10A cells; assay: Cell viability, MCF 10A; format: cell-based, human
# Source text: as §1
# [12] = test system: caspase-3 activation; assay: Caspase-3 activation by gel filtration fractions of Apaf-1 complexes; format: biochemical; settings: 20 μM compound, 0.15 μM cyto c; for extent of caspase-3 activation: vehicle alone 0.36
# Description: FIG. 7 depicts activity of compounds 1-5 at low cyto c concentrations in a purified system. Apaf-1 was incubated with vehicle, cyto c, or cyto c plus 20 μM compound as indicated, and then separated on a Superose 6 gel filtration column. Individual fractions were assayed for relative Apaf-1 concentrations by capture ELISA (bar graph), or the ability to activate procaspase-3 processing in lysates (line graph). The percent of Apaf-1 in apoptosomes was determined by dividing the amount of Apaf-1 in fractions 8-11 by the total amount of Apaf-1. The extent of caspase-3 activation (given in arbitrary units) corresponds to the area under the curve for fractions 8-11 in each panel. Black bars represent fractions used for calculations.
# As the compounds appeared to be acting prior to caspase activation, their effect on the oligomerization of Apaf-1 was assessed (K. Cain, D. G. Brown, C. Langlais, G. M. Cohen, J Biol Chem 274, 22686-92 (1999); K. Cain et al., J Biol Chem 275, 6067-70 (2000)). By gel filtration, Apaf-1 normally runs as a monomer of ˜140 kD (FIG. 7) (see, A. Saleh, S. M. Srinivasula, S. Acharya, R. Fishel, E. S. Alnemri, J Biol Chem 274, 17941-5 (1999)). Incubation of Apaf-1 with 5 μM cyto c induces over 90% of the Apaf-1 to form large complexes of ˜700 kD, whereas incubation with 0.15 μM cyto c concentration allowed only 22% of the Apaf-1 to assemble into complexes. However, the addition of 20 μM compound 2 or 5 at the lower cyto c concentration caused the formation of two higher molecular weight complexes: a major peak that runs at the same retention time as the complex seen at 5 μM cyto c (˜700 kD), and a minor peak that elutes in the void volume. […] To determine if the Apaf-1 complexes induced by the compounds at the lower cyto c concentration are competent for caspase activation, procaspase-9, procaspase-3, and dATP were added to fractions from the gel filtration column and assayed for caspase-3 activation. Fractions from samples that had been incubated with 5 μM cyto c strongly activated caspase-3 processing (FIG. 7, panel ii, line graph), with the maximal caspase activation corresponding to the fractions that contained the apoptosome complex. On the other hand, no fractions form the sample without cyto c activated capsase-3 processing (panel i). There was a small but measurable amount of capsase-3 activation when the cyto c concentration was reduced to 0.15 μM (panel iii). However, the extent of caspase-3 activation at the reduced level of cyto c increased approximately 4-fold when either compound 2 or 5 was added to the reaction (from 0.36 arbitrary units for the vehicle alone to 1.57 and 1.4 for compounds 2 and 5, respectively, panels iv and vi). […]
pIC50 [2],pIC50 [4],pIC50 [6],pIC50 [7],"pIC50 ([8]; MCF-7, breast, caspase-3 deficient)",pIC50 [9],increase in caspase-3 activation over vehicle alone [12],extent of caspase-3 activation [12],Structure (SMILES),"effect on cells ([1]; HMEC cells, up to 50 μM)","pIC50 ([1]; HMEC, normal cell)",cleavage of PARP [3],"effect on cells ([5]; PREC cells, up to 50 μM)","pIC50 ([5]; PREC, normal cell)","effect on cells ([8]; MCF-7, deficient in caspase-3 activity)",processing of procaspase-3 [10],"effect on cells ([11]; MCF 10A cells, up to 50 μM)","pIC50 ([11]; MCF 10A, normal cell)"
4.40,5.22,4.36,< 4.30,< 4.30,4.46,approximately 4 fold,1.57 arbitrary units,O=C1C(=O)N(Cc2ccc(Cl)c(Cl)c2)c2ccccc21 [Compound 2],no effect except at the highest concentration,< 4.30,complete cleavage,no effect except at the highest concentration,< 4.30,no effect,significant processing,no effect except at the highest concentration,< 4.30
–,–,–,–,–,–,–,–,O=C(NCc1ccc(Cl)c(Cl)c1)OC1CCc2ccccc21 (stereo not shown) [Compound 4],–,–,–,–,–,–,less processing,–,–
–,–,–,–,–,–,approximately 4 fold,1.4 arbitrary units,O=C(NCc1ccc(Cl)c(Cl)c1)OC1CCc2ccccc21 (stereo not shown) [Compound 5],–,–,limited processing,–,–,–,significant processing,–,–
